{"source": "patent US20210261642A1", "about": "“SOLUBILITY OF GLP-1 PEPTIDE” (Novo Nordisk A/S, priority 2017, published 2021)", "test": "Assay (I): Determination of Solubility (96-well plate, pH 3.0-11.0, organic solvent 0-70% w/w, UV absorption at 280 nm)", "type": "physicochemical", "conditions": "Method 1", "experimental": "Assay (I): Determination of Solubility\n96-Well Plate Preparation\n96-well plates containing target peptide in a solid form were prepared in one of two ways:\nMethod 1 (evaporation): Addition of 100 μl stock solution of said peptide at a concentration of 4-6 mg/ml to each well of a 96-well half area plate (150 μl well size). Subsequently the solvent was evaporated by applying a vacuum until the solvent was completely removed.\nMethod 2 (precipitation): Addition of a certain volume of a stock solution of said peptide containing to each well of a 96-well half area plate followed by the addition of a certain volume of concentrated phosphoric acid to obtain a pH of 4.6 followed by addition of a certain volume of ethanol resulting in a final ethanol concentration of 20% v/v. Subsequently the plate was stored at 4° C. for 1 h and then centrifuged at 4,000 rpm for 20 min. Finally the supernatant was removed. The concentration of the stock solution was chosen in a way that the final amount of peptide after supernatant removal was >0.4 mg per well.\nIn both cases the stock solution was prepared by adding de-ionized water to a certain amount of powder of said peptide followed by a stepwise addition of small amounts of a concentrated sodium hydroxide solution until said peptide was completely in solution.\nTo determine solubility of a target peptide at different pH and organic solvent concentrations, two different buffer systems were used in independent experiments to cover the whole range from pH 3.0 to pH 11.0. Buffer system 1 covers pH 3.0-7.5 and buffer system 2 covers pH 7.5-11.0. For each buffer system 96 different solvent compositions were premixed in the following way: • 1. A low pH buffer (adjusted to either pH 3.0 or pH 7.5) and a high pH buffer (adjusted to either pH 7.5 or pH 11.0) were mixed at 8 different ratios to obtain values between pH 3.0 and pH 7.5 or pH 7.5 and pH 11.0, respectively. The total volume after mixing was 300 μl. • 2. 12 different amounts of organic solvent were then added to these buffers to obtain organic solvent (e.g. ethanol) concentrations between 0 and 70% w/w. • 3. Water was then added to obtain a total weight of 1.0 g of solvent in each well.\nAfter preparing the 96 different solvent systems, 100 μl of each system was transferred to the 96-well plate containing the solid form of the target peptide (prepared as described in the section “96-well plate preparation”). The plate was then stored at a given temperature (between 5° C. and 70° C.) for a given time on a rotating shaker set to 400 rpm. At regular time intervals the plate was centrifuged (4,000 rpm for 10 min) and a 10 μl sample was taken from each well. The samples were then analysed by UV absorption at 280 nm for peptide quantification. Peptide concentration results are given as UV absorption at 280 nm of the sample subtracted UV absorption at 280 nm of a well comprising 10 μl water.\nThe buffers used were as follows: • Buffer system 1 (for the pH range from pH 3.0-7.5)\n• Buffer system 2 (for the pH ranae from pH 7.5-11.0)\nSolubility of liraglutide was determined using Assay (I) described herein. Liraglutide was prepared using Method 1 (evaporation) or Method 2 (precipitation) as described in subsection “96-well plate preparation”."}
{"compound": "CCCCCCCCCCCCCCCC(=O)N[C@@H](CCC(=O)NCCCC[C@H](NC(=O)[C@H](C)NC(=O)[C@H](C)NC(=O)[C@H](CCC(N)=O)NC(=O)CNC(=O)[C@H](CCC(=O)O)NC(=O)[C@H](CC(C)C)NC(=O)[C@H](Cc1ccc(O)cc1)NC(=O)[C@H](CO)NC(=O)[C@H](CO)NC(=O)[C@@H](NC(=O)[C@H](CC(=O)O)NC(=O)[C@H](CO)NC(=O)[C@@H](NC(=O)[C@H](Cc1ccccc1)NC(=O)[C@@H](NC(=O)CNC(=O)[C@H](CCC(=O)O)NC(=O)[C@H](C)NC(=O)[C@@H](N)Cc1cnc[nH]1)[C@@H](C)O)[C@@H](C)O)C(C)C)C(=O)N[C@@H](CCC(=O)O)C(=O)N[C@@H](Cc1ccccc1)C(=O)N[C@H](C(=O)N[C@@H](C)C(=O)N[C@@H](Cc1c[nH]c2ccccc12)C(=O)N[C@@H](CC(C)C)C(=O)N[C@H](C(=O)N[C@@H](CCCNC(=N)N)C(=O)NCC(=O)N[C@@H](CCCNC(=N)N)C(=O)NCC(=O)O)C(C)C)[C@@H](C)CC)C(=O)O", "note": "[liraglutide, Arg34,Lys26-(N-epsilon-(gamma-L-glutamyl(N-alfa-hexadecanoyl)))-GLP-1(7-37)]", "values": [{"measurement": "Peptide concentration after 5 min", "setting": "MeCN 31.8% w/w, pH 10.0, 5° C.", "result": 1.9, "unit": "mg/mL"}, {"measurement": "Peptide concentration after 180 min", "setting": "MeCN 31.8% w/w, pH 10.0, 5° C.", "result": ">4.0", "unit": "mg/mL"}, {"measurement": "Peptide concentration after 24 h", "setting": "MeCN 31.8% w/w, pH 10.0, 5° C.", "result": 2.8, "unit": "mg/mL"}, {"measurement": "Peptide concentration after 5 min", "setting": "MeCN 31.8% w/w, pH 10.5, 5° C.", "result": 1.3, "unit": "mg/mL"}, {"measurement": "Peptide concentration after 180 min", "setting": "MeCN 31.8% w/w, pH 10.5, 5° C.", "result": 3.9, "unit": "mg/mL"}, {"measurement": "Peptide concentration after 24 h", "setting": "MeCN 31.8% w/w, pH 10.5, 5° C.", "result": 3.6, "unit": "mg/mL"}, {"measurement": "Peptide concentration after 5 min", "setting": "MeCN 31.8% w/w, pH 11.0, 5° C.", "result": 0.8, "unit": "mg/mL"}, {"measurement": "Peptide concentration after 180 min", "setting": "MeCN 31.8% w/w, pH 11.0, 5° C.", "result": 3.0, "unit": "mg/mL"}, {"measurement": "Peptide concentration after 24 h", "setting": "MeCN 31.8% w/w, pH 11.0, 5° C.", "result": ">4.0", "unit": "mg/mL"}, {"measurement": "Peptide concentration after 5 min", "setting": "MeCN 38.2% w/w, pH 8.0, 5° C.", "result": 0.8, "unit": "mg/mL"}, {"measurement": "Peptide concentration after 180 min", "setting": "MeCN 38.2% w/w, pH 8.0, 5° C.", "result": 3.2, "unit": "mg/mL"}, {"measurement": "Peptide concentration after 24 h", "setting": "MeCN 38.2% w/w, pH 8.0, 5° C.", "result": ">4.0", "unit": "mg/mL"}, {"measurement": "Peptide concentration after 5 min", "setting": "MeCN 38.2% w/w, pH 8.5, 5° C.", "result": 0.8, "unit": "mg/mL"}, {"measurement": "Peptide concentration after 180 min", "setting": "MeCN 38.2% w/w, pH 8.5, 5° C.", "result": 2.9, "unit": "mg/mL"}, {"measurement": "Peptide concentration after 24 h", "setting": "MeCN 38.2% w/w, pH 8.5, 5° C.", "result": ">4.0", "unit": "mg/mL"}, {"measurement": "Peptide concentration after 5 min", "setting": "MeCN 38.2% w/w, pH 9.0, 5° C.", "result": 0.4, "unit": "mg/mL"}, {"measurement": "Peptide concentration after 180 min", "setting": "MeCN 38.2% w/w, pH 9.0, 5° C.", "result": 2.0, "unit": "mg/mL"}, {"measurement": "Peptide concentration after 24 h", "setting": "MeCN 38.2% w/w, pH 9.0, 5° C.", "result": ">4.0", "unit": "mg/mL"}, {"measurement": "Peptide concentration after 5 min", "setting": "MeCN 38.2% w/w, pH 9.5, 5° C.", "result": 1.1, "unit": "mg/mL"}, {"measurement": "Peptide concentration after 180 min", "setting": "MeCN 38.2% w/w, pH 9.5, 5° C.", "result": 3.9, "unit": "mg/mL"}, {"measurement": "Peptide concentration after 24 h", "setting": "MeCN 38.2% w/w, pH 9.5, 5° C.", "result": 4.0, "unit": "mg/mL"}, {"measurement": "Peptide concentration after 5 min", "setting": "MeCN 38.2% w/w, pH 10.0, 5° C.", "result": 1.5, "unit": "mg/mL"}, {"measurement": "Peptide concentration after 180 min", "setting": "MeCN 38.2% w/w, pH 10.0, 5° C.", "result": ">4.0", "unit": "mg/mL"}, {"measurement": "Peptide concentration after 24 h", "setting": "MeCN 38.2% w/w, pH 10.0, 5° C.", "result": ">4.0", "unit": "mg/mL"}, {"measurement": "Peptide concentration after 5 min", "setting": "MeCN 38.2% w/w, pH 10.5, 5° C.", "result": 1.2, "unit": "mg/mL"}, {"measurement": "Peptide concentration after 180 min", "setting": "MeCN 38.2% w/w, pH 10.5, 5° C.", "result": 3.2, "unit": "mg/mL"}, {"measurement": "Peptide concentration after 24 h", "setting": "MeCN 38.2% w/w, pH 10.5, 5° C.", "result": 2.1, "unit": "mg/mL"}, {"measurement": "Peptide concentration after 5 min", "setting": "MeCN 38.2% w/w, pH 11.0, 5° C.", "result": 0.6, "unit": "mg/mL"}, {"measurement": "Peptide concentration after 180 min", "setting": "MeCN 38.2% w/w, pH 11.0, 5° C.", "result": 2.7, "unit": "mg/mL"}, {"measurement": "Peptide concentration after 24 h", "setting": "MeCN 38.2% w/w, pH 11.0, 5° C.", "result": ">4.0", "unit": "mg/mL"}, {"measurement": "Peptide concentration after 5 min", "setting": "MeCN 44.5% w/w, pH 8.0, 5° C.", "result": 0.7, "unit": "mg/mL"}, {"measurement": "Peptide concentration after 180 min", "setting": "MeCN 44.5% w/w, pH 8.0, 5° C.", "result": 2.8, "unit": "mg/mL"}, {"measurement": "Peptide concentration after 24 h", "setting": "MeCN 44.5% w/w, pH 8.0, 5° C.", "result": ">4.0", "unit": "mg/mL"}, {"measurement": "Peptide concentration after 5 min", "setting": "MeCN 44.5% w/w, pH 8.5, 5° C.", "result": 1.1, "unit": "mg/mL"}, {"measurement": "Peptide concentration after 180 min", "setting": "MeCN 44.5% w/w, pH 8.5, 5° C.", "result": 3.3, "unit": "mg/mL"}, {"measurement": "Peptide concentration after 24 h", "setting": "MeCN 44.5% w/w, pH 8.5, 5° C.", "result": ">4.0", "unit": "mg/mL"}, {"measurement": "Peptide concentration after 5 min", "setting": "MeCN 44.5% w/w, pH 9.0, 5° C.", "result": 1.7, "unit": "mg/mL"}, {"measurement": "Peptide concentration after 180 min", "setting": "MeCN 44.5% w/w, pH 9.0, 5° C.", "result": 2.7, "unit": "mg/mL"}, {"measurement": "Peptide concentration after 24 h", "setting": "MeCN 44.5% w/w, pH 9.0, 5° C.", "result": ">4.0", "unit": "mg/mL"}, {"measurement": "Peptide concentration after 5 min", "setting": "MeCN 44.5% w/w, pH 9.5, 5° C.", "result": 1.1, "unit": "mg/mL"}, {"measurement": "Peptide concentration after 180 min", "setting": "MeCN 44.5% w/w, pH 9.5, 5° C.", "result": 3.7, "unit": "mg/mL"}, {"measurement": "Peptide concentration after 24 h", "setting": "MeCN 44.5% w/w, pH 9.5, 5° C.", "result": 1.3, "unit": "mg/mL"}, {"measurement": "Peptide concentration after 5 min", "setting": "MeCN 44.5% w/w, pH 10.0, 5° C.", "result": 1.3, "unit": "mg/mL"}, {"measurement": "Peptide concentration after 180 min", "setting": "MeCN 44.5% w/w, pH 10.0, 5° C.", "result": 3.7, "unit": "mg/mL"}, {"measurement": "Peptide concentration after 24 h", "setting": "MeCN 44.5% w/w, pH 10.0, 5° C.", "result": ">4.0", "unit": "mg/mL"}, {"measurement": "Peptide concentration after 5 min", "setting": "MeCN 44.5% w/w, pH 10.5, 5° C.", "result": 0.9, "unit": "mg/mL"}, {"measurement": "Peptide concentration after 180 min", "setting": "MeCN 44.5% w/w, pH 10.5, 5° C.", "result": 2.9, "unit": "mg/mL"}, {"measurement": "Peptide concentration after 24 h", "setting": "MeCN 44.5% w/w, pH 10.5, 5° C.", "result": ">4.0", "unit": "mg/mL"}, {"measurement": "Peptide concentration after 5 min", "setting": "MeCN 44.5% w/w, pH 11.0, 5° C.", "result": 0.8, "unit": "mg/mL"}, {"measurement": "Peptide concentration after 180 min", "setting": "MeCN 44.5% w/w, pH 11.0, 5° C.", "result": 2.9, "unit": "mg/mL"}, {"measurement": "Peptide concentration after 24 h", "setting": "MeCN 44.5% w/w, pH 11.0, 5° C.", "result": ">4.0", "unit": "mg/mL"}, {"measurement": "Peptide concentration after 5 min", "setting": "MeCN 50.9% w/w, pH 8.0, 5° C.", "result": 0.6, "unit": "mg/mL"}]}
